According to patent publication US20090131309A1, “ICA512 COUPLES INSULIN SECRETION AND GENE EXPRESSION IN BETA-CELLS” (Technische Universität Dresden Medizinizche Fakultät Carl …, priority 2004, published 2009):

Tests used:
μ-calpain = target: T1, μ-calpain (Homo sapiens, UniProt P07384); type: biochemical; conditions: bacterially expressed ICA512 (601-979), 50 μM Ca2+, 30 μM inhibitor
T1 sequence (P07384 1-714): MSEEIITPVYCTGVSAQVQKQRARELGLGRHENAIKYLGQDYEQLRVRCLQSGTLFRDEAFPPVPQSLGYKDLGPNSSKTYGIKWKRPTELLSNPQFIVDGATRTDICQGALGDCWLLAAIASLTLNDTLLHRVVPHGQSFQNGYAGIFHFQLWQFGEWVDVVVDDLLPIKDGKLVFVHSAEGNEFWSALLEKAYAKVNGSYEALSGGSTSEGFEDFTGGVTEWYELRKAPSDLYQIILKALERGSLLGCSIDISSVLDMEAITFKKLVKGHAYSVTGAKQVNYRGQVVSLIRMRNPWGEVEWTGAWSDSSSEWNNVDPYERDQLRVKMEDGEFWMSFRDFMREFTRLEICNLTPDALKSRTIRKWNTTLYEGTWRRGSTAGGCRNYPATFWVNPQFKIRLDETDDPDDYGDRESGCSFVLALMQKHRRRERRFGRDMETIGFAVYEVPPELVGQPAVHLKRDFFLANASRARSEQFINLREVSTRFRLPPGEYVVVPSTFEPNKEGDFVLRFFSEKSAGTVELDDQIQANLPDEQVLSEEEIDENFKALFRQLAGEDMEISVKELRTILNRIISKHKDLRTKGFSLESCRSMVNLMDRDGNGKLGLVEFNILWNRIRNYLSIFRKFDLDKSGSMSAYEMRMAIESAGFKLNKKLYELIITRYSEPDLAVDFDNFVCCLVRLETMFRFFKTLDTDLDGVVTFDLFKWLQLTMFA
T1 sequence (P04632 1-268 partner): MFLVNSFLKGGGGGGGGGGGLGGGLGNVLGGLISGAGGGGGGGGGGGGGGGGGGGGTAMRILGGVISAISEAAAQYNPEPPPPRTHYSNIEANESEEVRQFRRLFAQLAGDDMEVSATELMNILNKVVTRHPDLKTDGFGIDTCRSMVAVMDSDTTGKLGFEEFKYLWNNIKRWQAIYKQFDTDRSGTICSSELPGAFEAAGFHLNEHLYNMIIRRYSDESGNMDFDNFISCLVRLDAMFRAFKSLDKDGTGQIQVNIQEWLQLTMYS
Procedure: In-vitro μ-calpain cleavage. 3 μg bacterially expressed His-ICA512 cytoplasmic domain (residues 601-979) (Ort et al., 2001) were incubated in 20 μl buffer (20 mM Tris-HCl pH 7.5, 50 μM CaCl2, 1 mM L-cysteine) at room temperature with or without 150 ng μ-calpain (Calbiochem) and 30 μM calpeptin or MG-132 for 1, 5, 15 or 45 minutes. The reactions were stopped by addition of an equal volume of 2×SDS sample buffer. Following SDS-PAGE, proteins were stained with Coomassie Blue (Bio-Rad).

Insulin mRNA = Insulin mRNA levels by real-time PCR in INS-1 cells; type: cell-based, rat; conditions: 40 μM calpeptin; 2 hrs after 6 hrs stimulation and later; vs cells stimulated without calpeptin
Procedure: Time-course stimulation of INS-1 cells. INS-1 ceils were incubated for 1 hr. in resting buffer (2.8 mM glucose and 5 mM KCl), then for 6 hrs. in resting or stimulating buffer, with or without 40 μM calpeptin, and then again in resting buffer for up to 24 hrs. Total RNA for real-time PCR was collected at time 0, 2 and 6 hrs. during stimulation and at 2, 6, 12 and 24 hrs. during the following resting period.
Real-time PCR. Total RNA from INS-1 cells was isolated with Trizol (Invitrogen, Karlsruhe, Germany) according to the manufacturer's protocol. 1 μg of total RNA was used for the reverse transcriptase reaction, with 2 μM specific antisense primers for […] and insulin, as described (31). mRNA expression was measured by quantitative real-time PCR using the Brilliant SYBR Green QPCR (Stratagene, La Jolla, Calif.) with an Mx4000 Multiplex Quantitative Real Time PCR System (Stratagene).

pro-ICA512 = assay: Immunoblot for pro-ICA512 and ICA512-TMF in INS-1 cells; type: cell-based, rat; conditions: 60 μM Calpeptin
Procedure: Culture of INS-1 cells. INS-1 cells were grown as described^27. In some instances cells were pre-incubated for 1 hour in resting buffer (0 mM glucose, 5 mM KCl) and then for 2 or 6 hours in resting or stimulating (25 mM glucose, 55 mM KCl) buffers as described^7. Calpeptin (Calbiochem) was added in the last 15 minutes of the pre-incubation, and then for the entire following period before cells were harvested. Cells were stimulated with 20 nM human growth hormone (hGH) for 20 minutes following 18 hours incubation in low serum medium (LSM) containing RPMI-1640, 11 mM glucose, 0.5% FBS 25 mM HEPES, 1% penicillin-streptomycin and 0.05 mM β-mercaptoethanol. After washing, cells were either harvested or incubated in LSM for 6 additional hours. For immunoprecipitation cells were collected 1 hour after stimulation with hGH.
Cell extracts and western blotting. INS-1 cells and pancreatic islets were harvested at 4° C. in RIPA buffer [50 mM Tris-HCl at pH 8.0, 150 mM NaCl, 1% NP-40, 0.1% SDS, 0.5% sodium deoxycholate, and 1× protease inhibitor cocktail (Sigma)] to obtain total extracts. Insoluble material was removed by centrifugation. Cytosolic and nuclear extracts were prepared using the NE-PER Nuclear and Cytoplasmic Extraction Reagents (Pierce). Proteins were separated by 8-10% SDS-PAGE and immunoblotted with the following antibodies: mouse monoclonals anti-ICA512^7, anti-STAT5 (Santa Cruz), anti-γ-tubulin and anti-HA (Sigma); rabbit anti-PY-STAT5 and anti-STAT3 (Cell Signaling); affinity purified goat anti-GFP IgGs. Chemiluminescence was developed using the Supersignal West Pico or Femto kits (Pierce) and detected with a LAS 3000 Bioimaging System (Fuji). Protein signals were quantified with the Image Gauge v3.45 software (Fuji). Half the amount of nuclear extract proteins were immunoblotted relative to total and cytosolic extract proteins.

Structure (SMILES): CCCC[C@@H](C=O)NC(=O)[C@H](CC(C)C)NC(=O)OCc1ccccc1 [calpeptin]
- Cleavage by μ-calpain (μ-calpain): inhibited
- insulin mRNA reduction (Insulin mRNA): ~40%
- rapid induction of pro-ICA512 (pro-ICA512; cells stimulated for 2 hours): did not prevent the rapid induction of pro-ICA512
- greater induction of pro-ICA512 and decrease of ICA512-TMF (pro-ICA512; cells stimulated for 6 hours): partially inhibited
